Tests used:
[1] = test system: PC-3 prostate cancer cells; test: Example T: sensitisation of PC-3 cells to doxorubicin, oxaliplatin, paclitaxel or vincristine, Wst1; assay type: cell-based, human; details: PC-3 cells, 72 hours; for viability at 0.4 µM: compound 0.4 μM alone; for Doxorubicin 3.5 μM: percent cell survival / Oxaliplatin 100 μM: percent cell survival / Paclitaxel 50 μM: percent cell survival / Vincristine 100 nM: percent cell survival: chemotherapy agent alone normalized to 100%; for viability at 0.5 µM: compound 0.5 μM alone
THP-1 cells = test: Example D: LPS-triggered THP-1 cell death assay, acute/5-hour and chronic/48-hour; assay type: cell-based, Human; details: for Viable cell percent change, Chronic/48-hour, Mean: 10 ng/ml LPS, 0.1 μM test compound; for activity relative to AC in the LPS-triggered THP-1 cell death assay, in words: 0.1 μM, 5-hour and 48-hour time points
Experimental: Compounds of the invention were tested at 0.1 μM versus AC in the LPS-triggered THP-1 cell death assay. Both acute/5-hour and chronic/48-hour phases of cell death were assessed. Compounds were screened in batches with DMSO as the negative control and AC as the high activity control.

[2] = test system: PC3 human prostate cancer cells; test: Example S: in vitro anticancer screen, PC-3 cells, Wst1; assay type: cell-based; details: approximately 20 hours, Wst1
Experimental: Activity against PC3 human prostate cancer cells in vitro was assessed by a similar method. PC-3 prostate cancer cells were plated at 2×10^4 cells/well in 96 well flat bottom tissue culture plates, and incubated for approximately 20 hours with vehicle or test compounds at concentrations of 0.4, 0.5 or 2.5 μM as indicated for specific compounds in the right-hand column of Table 37. A 1/10th volume of Wst1 dye was added/well and incubated for two hours in the cell culture incubator. Samples were analyzed in triplicate on an EL800 Universal Microplate Reader at 450 nm, reference wavelength 630 nm.
(§1) Numerical values in the Table 37 represent percent of cancer cell survival relative to vehicle treated cells at the indicated concentrations, with values under 100 indicating anticancer cytotoxic activity at the drugs concentrations tested.

[3] = test system: 4T1 murine breast cancer cells; test: Example S: in vitro anticancer screen, 4T1 cells, Wst1; assay type: cell-based, mouse; details: 18 hr, Wst1; for viability at 1 µM / viability at 5 µM: Mus musculus, 4T1, 18 h; for viability at 1 µM: read-out: 4T1 1 μM, percent of cancer cell survival relative to vehicle treated cells; for viability at 5 µM: read-out: 4T1 5 μM, percent of cancer cell survival relative to vehicle treated cells
Experimental: Anticancer activity against 4T1 murine breast cancer cells cancer cells was assessed in vitro by seeding 1×10^4 cells/well in flat bottom culture plates, then treating with selected 1 μM or 5 μM concentrations of compounds for 18 hr after plating. Then 10 μL of Wst1 dye reagent, a tetrazolium dye indicator for […], was added/well and incubated approximately 2 hr before being assayed on the Biotek EL800 Universal microplate reader (450 nm, reference 630 nm).
as §1

[4] = Homo sapiens, Wst1, vehicle = 100, read-out: No Chemo: percent cell survival
[5] = compound 0.4 μM + doxorubicin 3.5 μM
[6] = compound 0.4 μM + oxaliplatin 100 μM
[7] = compound 0.4 μM + paclitaxel 50 μM
[8] = compound 0.4 μM + vincristine 100 nM
[9] = Homo sapiens, PC-3, read-out: PC-3, percent of cancer cell survival relative to vehicle treated cells
[10] = Homo sapiens, compound 2.5 μM alone, Wst1, vehicle = 100, read-out: No Chemo: percent cell survival
[11] = compound 2.5 μM + doxorubicin 3.5 μM
[12] = compound 2.5 μM + oxaliplatin 100 μM
[13] = compound 2.5 μM + paclitaxel 50 μM
[14] = compound 2.5 μM + vincristine 100 nM
[15] = Homo sapiens, PC-3, 2.5 μM, read-out: PC-3, percent of cancer cell survival relative to vehicle treated cells
[16] = compound 0.5 μM + doxorubicin 3.5 μM
[17] = compound 0.5 μM + oxaliplatin 100 μM
[18] = compound 0.5 μM + paclitaxel 50 μM
[19] = compound 0.5 μM + vincristine 100 nM

| SMILES | viability at 0.4 µM [1, 4] [%] | Doxorubicin 3.5 μM: percent cell survival [1, 5] [%] | Oxaliplatin 100 μM: percent cell survival [1, 6] [%] | Paclitaxel 50 μM: percent cell survival [1, 7] [%] | Vincristine 100 nM: percent cell survival [1, 8] [%] | Viable cell percent change, Chronic/48-hour, Mean (THP-1 cells) [%] | viability at 0.4 µM [2, 9] [%] | viability at 1 µM ([3]; 1 μM) [%] | viability at 5 µM ([3]; 5 μM) [%] | Doxorubicin 3.5 μM: percent cell survival [1, 11] [%] | Oxaliplatin 100 μM: percent cell survival [1, 12] [%] | Paclitaxel 50 μM: percent cell survival [1, 13] [%] | Vincristine 100 nM: percent cell survival [1, 14] [%] | also measured |
| --- | --- | --- | --- | --- | --- | --- | --- | --- | --- | --- | --- | --- | --- | --- |
| c1ccc(COc2cccc(CNc3ccnc4ccccc34)c2)cc1 [BU, N-[3-(Benzyloxy)benzyl]quinolin-4-amine] | 24 | 48.1 | 57.2 | 31 | 26.7 | 18.10 | 24 | 17.6 | 21.4 | – | – | – | – | activity relative to AC in the LPS-triggered THP-1 cell death assay, in words (THP-1 cells): equivalent activity to AC at both the 5-hour and 48-hour time points |
| c1cncc(CNc2ccnc3ccccc23)c1 [BY, N-(Pyridin-3-ylmethyl)quinolin-4-amine] | – | – | – | – | – | 39.64 | – | 107 | 209 | 98.4 | 101.1 | 99.9 | 94.1 | viability at 2.5 µM [1, 10]: 96.6%; viability at 2.5 µM [2, 15]: 96.6% |
| CCCCCCOCCCCCOCCCn1cnc2cnc3ccccc3c21 [CF] | – | – | – | – | – | 27.26 | – | – | – | 68.8 | 83.5 | 70.3 | 75.3 | No Chemo: percent cell survival ([1]; compound 2.5 μM alone, Wst1, vehicle = 100): 126.4%; PC-3, percent of cancer cell survival relative to vehicle treated cells ([2]; 2.5 μM): 126.4%; 4T1 1 μM, percent of cancer cell survival relative to vehicle treated cells ([3]; 1 μM): 96.7%; 4T1 5 μM, percent of cancer cell survival relative to vehicle treated cells ([3]; 5 μM): 28.6% |
| CCCCCCOCCCCCCCCNc1ccnc2ccccc12 [CH, N-[8-(Hexyloxy)octyl]quinolin-4-amine] | 102 | 62.8 | 101.1 | 84.6 | 67.4 | 53.55 | 102 | 45.2 | 27.2 | – | – | – | – | – |
| CCCCCCOCCCCCCNc1ccnc2ccccc12 [CK, N-[6-(Hexyloxy)hexyl]quinolin-4-amine] | – | – | – | – | – | 42.23 | – | 62.5 | 45.3 | – | – | – | – | viability at 0.5 µM [1, 4]: 51.4%; Doxorubicin 3.5 μM: percent cell survival [1, 16]: 111.6%; Oxaliplatin 100 μM: percent cell survival [1, 17]: 143%; Paclitaxel 50 μM: percent cell survival [1, 18]: 64.2%; Vincristine 100 nM: percent cell survival [1, 19]: 138.2%; viability at 0.5 µM [2, 9]: 51.4% |
| CCCCOCCCCCCNc1ccnc2ccccc12 [CL, N-(6-Butoxyhexyl)quinolin-4-amine] | 58.1 | 22.6 | 23.2 | 50.3 | 27.7 | 29.43 | 58.1 | 25.6 | 19.5 | – | – | – | – | activity relative to AC in the LPS-triggered THP-1 cell death assay, in words (THP-1 cells): equivalent activity to AC at both the 5-hour and 48-hour time points |
| c1ccc(COCCCCCCCCNc2ccnc3ccccc23)cc1 [CO, N-[8-(Benzyloxy)octyl]quinolin-4-amine] | 77.1 | 28.4 | 29.2 | 51.6 | 32.8 | 43.95 | 77.1 | 28.4 | 55.6 | – | – | – | – | – |
| CCCCCCOc1ccccc1OCCCCNc1ccnc2ccccc12 [CR, N-{4-[2-(Hexyloxy)phenoxy]butyl}quinolin-4-amine] | – | – | – | – | – | 40.02 | – | 110 | 31.8 | 87.6 | 89.3 | 93.4 | 86.9 | viability at 2.5 µM [1, 10]: 53.2%; viability at 2.5 µM [2, 15]: 53.2% |
| CCCCCCOc1cccc(OCCCCNc2ccnc3ccccc23)c1 [CV, N-{4-[3-(Hexyloxy)phenoxy]butyl}quinolin-4-amine] | – | – | – | – | – | 23.02 | – | 25.7 | 16.9 | – | – | – | – | viability at 0.5 µM [1, 4]: 73.8%; Doxorubicin 3.5 μM: percent cell survival [1, 16]: 36.2%; Oxaliplatin 100 μM: percent cell survival [1, 17]: 30.6%; Paclitaxel 50 μM: percent cell survival [1, 18]: 21.4%; Vincristine 100 nM: percent cell survival [1, 19]: 36.1%; activity relative to AC in the LPS-triggered THP-1 cell death assay, in words (THP-1 cells): equivalent activity to AC at both the 5-hour and 48-hour time points; viability at 0.5 µM [2, 9]: 73.8% |
| CCCCCCOc1cccc(OCCNc2ccnc3ccccc23)c1 [CW, N-{2-[3-(Hexyloxy)phenoxy]ethyl}quinolin-4-amine] | 98.5 | 31.9 | 26.6 | 55.9 | 69.4 | 43.71 | 98.5 | 25.1 | 18.4 | – | – | – | – | – |
| CCCCCCOc1ccc(OCCCNc2ccnc3ccccc23)cc1 [CY, N-{3-[4-(Hexyloxy)phenoxy]propyl}quinolin-4-amine] | 40.5 | 76.6 | 84.3 | 71.7 | 81.7 | 47.86 | 40.5 | 24.5 | 29.1 | – | – | – | – | – |
| CCCCCCOCCCCCCCCn1cnc(-c2ccccc2)c1 [FR, 1-[8-(Hexyloxy)octyl]-4-phenyl-1H-imidazole] | – | – | – | – | – | 15.96 | – | – | – | 93.2 | 102.5 | 102.5 | 99.1 | viability at 2.5 µM [1, 10]: 101%; viability at 2.5 µM [2, 15]: 101% |
| CCCCCCOCCCCCCCCn1ccc2ccccc21 [FW, 1-[8-(Hexyloxy)octyl]-1H-indole] | – | – | – | – | – | 1.27 | – | – | – | – | – | – | – | viability at 5 µM ([1]; Homo sapiens, compound 5 μM alone, Wst1, vehicle = 100, read-out: No Chemo: percent cell survival): 98.1%; Doxorubicin 3.5 μM: percent cell survival ([1]; compound 5 μM + doxorubicin 3.5 μM): 102.7%; Oxaliplatin 100 μM: percent cell survival ([1]; compound 5 μM + oxaliplatin 100 μM): 109.6%; Paclitaxel 50 μM: percent cell survival ([1]; compound 5 μM + paclitaxel 50 μM): 128.5%; Vincristine 100 nM: percent cell survival ([1]; compound 5 μM + vincristine 100 nM): 104.6%; viability at 5 µM ([2]; Homo sapiens, PC-3, 5 μM, read-out: PC-3, percent of cancer cell survival relative to vehicle treated cells): 98.1% |

— US20250034139A1, “AMINE COMPOUNDS HAVING ANTI-INFLAMMATORY, ANTIFUNGAL, ANTIPARASITIC, AND ANTICANCER ACTIVITY” (PHARMA CINQ, LLC, priority 2013, published 2025)
